Data taken from patent US8940724B2, “Quinoline derivitives and their uses” (Amgen Inc., priority 2009, dated 2015).

What follows are compounds tested against T1, PI3Kδ (Homo sapiens, UniProt O00329) (assay: PI3Kδ Alphascreen assay).
T1 construct: Full length p110 subunits of PI3k α, β and δ, N-terminally labeled with polyHis tag; polyHis (N); made in house; host or cells: Sf9 insect cells (baculovirus)
Assay type: biochemical

T1 sequence (O00329 whole entry): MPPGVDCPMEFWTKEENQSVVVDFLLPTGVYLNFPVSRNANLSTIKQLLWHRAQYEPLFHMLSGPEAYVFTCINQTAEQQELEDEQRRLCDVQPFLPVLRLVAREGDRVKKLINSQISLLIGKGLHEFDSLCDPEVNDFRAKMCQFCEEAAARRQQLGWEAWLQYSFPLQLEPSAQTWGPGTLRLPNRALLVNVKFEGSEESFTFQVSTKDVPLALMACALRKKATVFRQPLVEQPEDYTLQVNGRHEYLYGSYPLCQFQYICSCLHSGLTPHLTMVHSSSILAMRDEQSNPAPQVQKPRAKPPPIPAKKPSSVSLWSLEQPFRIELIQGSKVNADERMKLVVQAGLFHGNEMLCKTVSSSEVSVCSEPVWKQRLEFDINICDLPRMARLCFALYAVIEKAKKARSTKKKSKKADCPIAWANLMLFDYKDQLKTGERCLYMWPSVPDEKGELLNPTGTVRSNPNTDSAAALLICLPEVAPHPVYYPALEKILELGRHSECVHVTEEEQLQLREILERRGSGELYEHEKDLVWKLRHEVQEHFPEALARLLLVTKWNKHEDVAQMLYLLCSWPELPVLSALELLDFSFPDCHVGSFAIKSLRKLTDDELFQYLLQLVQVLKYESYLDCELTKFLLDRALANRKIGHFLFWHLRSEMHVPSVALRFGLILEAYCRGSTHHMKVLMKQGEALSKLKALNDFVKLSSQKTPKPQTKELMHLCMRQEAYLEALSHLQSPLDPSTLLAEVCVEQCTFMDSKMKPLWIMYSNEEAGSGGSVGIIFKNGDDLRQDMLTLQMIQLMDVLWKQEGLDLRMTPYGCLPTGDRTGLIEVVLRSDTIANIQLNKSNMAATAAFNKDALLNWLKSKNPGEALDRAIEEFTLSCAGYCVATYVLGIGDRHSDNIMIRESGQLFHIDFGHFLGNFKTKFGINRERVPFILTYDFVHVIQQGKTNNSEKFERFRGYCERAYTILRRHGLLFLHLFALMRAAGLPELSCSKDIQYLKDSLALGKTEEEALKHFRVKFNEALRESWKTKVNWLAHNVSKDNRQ
T1 sequence (P27986 whole entry partner): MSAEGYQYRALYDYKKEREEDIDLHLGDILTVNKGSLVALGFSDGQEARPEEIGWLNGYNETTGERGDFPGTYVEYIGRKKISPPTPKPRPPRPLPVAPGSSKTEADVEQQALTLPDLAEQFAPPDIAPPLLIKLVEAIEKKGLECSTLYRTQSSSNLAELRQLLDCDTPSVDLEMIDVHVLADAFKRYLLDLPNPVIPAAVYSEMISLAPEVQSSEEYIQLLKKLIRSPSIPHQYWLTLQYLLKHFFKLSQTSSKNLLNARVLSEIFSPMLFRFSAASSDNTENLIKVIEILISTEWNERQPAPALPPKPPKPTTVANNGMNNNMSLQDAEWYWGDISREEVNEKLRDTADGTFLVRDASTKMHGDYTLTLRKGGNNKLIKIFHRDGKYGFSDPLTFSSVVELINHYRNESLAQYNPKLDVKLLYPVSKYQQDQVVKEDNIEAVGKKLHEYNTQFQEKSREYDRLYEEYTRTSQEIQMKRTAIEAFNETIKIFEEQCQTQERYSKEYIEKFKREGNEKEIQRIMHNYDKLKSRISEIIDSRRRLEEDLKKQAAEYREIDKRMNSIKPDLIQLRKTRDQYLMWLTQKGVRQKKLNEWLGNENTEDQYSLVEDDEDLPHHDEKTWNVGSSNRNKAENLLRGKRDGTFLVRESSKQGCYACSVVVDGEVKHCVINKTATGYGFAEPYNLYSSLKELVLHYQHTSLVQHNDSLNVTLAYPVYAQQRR

| SMILES | Ki |
| --- | --- |
| Cc1cc(C(F)(F)F)ccc1-c1nc2cc(F)cc(F)c2c(Nc2cc(N3CCOCC3)cnc2N2CCOCC2)c1C [N-(2,5-di-4-morpholinyl-3-pyridinyl)-5,7-difluoro-3-methyl-2-(2-methyl-4-(trifluoromethyl)phenyl)-4-quinolinamine] | 0.248 µM |
| Cc1cc(-c2nc3cc(F)cc(F)c3c(Nc3cc(N4CCOCC4)cnc3N3CCOCC3)c2C)ccn1 [N-(2,5-di-4-morpholinyl-3-pyridinyl)-5,7-difluoro-3-methyl-2-(2-methyl-4-pyridinyl)-4-quinolinamine] | 0.0265 µM |
| Cc1ccnc(-c2nc3cc(F)cc(F)c3c(Nc3cc(N4CCOCC4)cnc3N3CCOCC3)c2C)c1 [N-(2,5-di-4-morpholinyl-3-pyridinyl)-5,7-difluoro-3-methyl-2-(4-methyl-2-pyridinyl)-4-quinolinamine] | 0.237 µM |
| Cc1c(-c2cc(-c3ccccc3)ccn2)nc2cc(F)cc(F)c2c1Nc1cc(N2CCOCC2)cnc1N1CCOCC1 [N-(2,5-di-4-morpholinyl-3-pyridinyl)-5,7-difluoro-3-methyl-2-(4-phenyl-2-pyridinyl)-4-quinolinamine] | 0.0479 µM |
| Cc1c(-c2cncc(S(C)(=O)=O)c2)nc2cc(F)cc(F)c2c1Nc1cc(N2CCOCC2)cnc1N1CCOCC1 [N-(2,5-di-4-morpholinyl-3-pyridinyl)-5,7-difluoro-3-methyl-2-(5-(methylsulfonyl)-3-pyridinyl)-4-quinolinamine] | 0.0838 µM |
| Cc1c(-c2ccc(N3CCNCC3)nc2)nc2cc(F)cc(F)c2c1Nc1cc(N2CCOCC2)cnc1N1CCOCC1 [N-(2,5-di-4-morpholinyl-3-pyridinyl)-5,7-difluoro-3-methyl-2-(6-(1-piperazinyl)-3-pyridinyl)-4-quinolinamine] | 0.0563 µM |
| Cc1c(-c2ccc(N3CCCCC3)nc2)nc2cc(F)cc(F)c2c1Nc1cc(N2CCOCC2)cnc1N1CCOCC1 [N-(2,5-di-4-morpholinyl-3-pyridinyl)-5,7-difluoro-3-methyl-2-(6-(1-piperidinyl)-3-pyridinyl)-4-quinolinamine] | 0.044 µM |
| Cc1c(-c2ccc(N3CCCC3)nc2)nc2cc(F)cc(F)c2c1Nc1cc(N2CCOCC2)cnc1N1CCOCC1 [N-(2,5-di-4-morpholinyl-3-pyridinyl)-5,7-difluoro-3-methyl-2-(6-(1-pyrrolidinyl)-3-pyridinyl)-4-quinolinamine] | 0.0468 µM |
| Cc1c(-c2ccc(N3CCN(C)CC3)nc2)nc2cc(F)cc(F)c2c1Nc1cc(N2CCOCC2)cnc1N1CCOCC1 [N-(2,5-di-4-morpholinyl-3-pyridinyl)-5,7-difluoro-3-methyl-2-(6-(4-methyl-1-piperazinyl)-3-pyridinyl)-4-quinolinamine] | 0.295 µM |
| Cc1c(-c2ccc(N3CCC(C)CC3)nc2)nc2cc(F)cc(F)c2c1Nc1cc(N2CCOCC2)cnc1N1CCOCC1 [N-(2,5-di-4-morpholinyl-3-pyridinyl)-5,7-difluoro-3-methyl-2-(6-(4-methyl-1-piperidinyl)-3-pyridinyl)-4-quinolinamine] | 0.134 µM |
| Cc1c(-c2ccc(N3CCOCC3)nc2)nc2cc(F)cc(F)c2c1Nc1cc(N2CCOCC2)cnc1N1CCOCC1 [N-(2,5-di-4-morpholinyl-3-pyridinyl)-5,7-difluoro-3-methyl-2-(6-(4-morpholinyl)-3-pyridinyl)-4-quinolinamine] | 0.0675 µM |
| Cc1c(-c2ccc(C(F)(F)F)nc2)nc2cc(F)cc(F)c2c1Nc1cc(N2CCOCC2)cnc1N1CCOCC1 [N-(2,5-di-4-morpholinyl-3-pyridinyl)-5,7-difluoro-3-methyl-2-(6-(trifluoromethyl)-3-pyridinyl)-4-quinolinamine] | 0.0232 µM |
| Cc1ccc(-c2nc3cc(F)cc(F)c3c(Nc3cc(N4CCOCC4)cnc3N3CCOCC3)c2C)cn1 [N-(2,5-di-4-morpholinyl-3-pyridinyl)-5,7-difluoro-3-methyl-2-(6-methyl-3-pyridinyl)-4-quinolinamine] | 0.018 µM |
| Cc1c(-c2ccccn2)nc2c(F)cc(F)cc2c1Nc1cc(N2CCOCC2)cnc1N1CCOCC1 [N-(2,5-di-4-morpholinyl-3-pyridinyl)-6,8-difluoro-3-methyl-2-(2-pyridinyl)-4-quinolinamine] | 0.345 µM |
| Cc1ccnc(-c2nc3cc(F)ccc3c(Nc3cc(N4CCOCC4)cnc3N3CCOCC3)c2C(C)C)c1 [N-(2,5-di-4-morpholinyl-3-pyridinyl)-7-fluoro-3-(1-methylethyl)-2-(4-methyl-2-pyridinyl)-4-quinolinamine] | 0.0143 µM |
| Cc1ccnc(-c2nc3cc(F)ccc3c(Nc3cc(N4CCOCC4)cnc3N3CCOCC3)c2C)c1 [N-(2,5-di-4-morpholinyl-3-pyridinyl)-7-fluoro-3-methyl-2-(4-methyl-2-pyridinyl)-4-quinolinamine] | 0.0351 µM |
| Cc1c(-c2ccccn2)nc2cnccc2c1Nc1cc(N2CCOCC2)ccc1N1CCOCC1 [N-(2,5-di-4-morpholinylphenyl)-3-methyl-2-(2-pyridinyl)-1,7-naphthyridin-4-amine] | 0.877 µM |
| Cc1c(-c2ccccn2)nc2ncccc2c1Nc1cc(N2CCOCC2)ccc1N1CCOCC1 [N-(2,5-di-4-morpholinylphenyl)-3-methyl-2-(2-pyridinyl)-1,8-naphthyridin-4-amine] | 0.582 µM |
| COc1cncc(-c2ncc(N3CCOCC3)cc2N(C(=O)C(F)(F)F)c2c(C)c(-c3ccccn3)nc3cc(F)cc(F)c23)c1 [N-(5,7-difluoro-3-methyl-2-(2-pyridinyl)-4-quinolinyl)-2,2,2-trifluoro-N-(5′-methoxy-5-(4-morpholinyl)-2,3′-bipyridin-3-yl)-acetamide] | 0.227 µM |
| COc1ncccc1-c1ncc(N2CCOCC2)cc1Nc1c(C)c(-c2ccccn2)nc2cc(F)cc(F)c12 [N-(5,7-difluoro-3-methyl-2-(2-pyridinyl)-4-quinolinyl)-2′-methoxy-5-(4-morpholinyl)-2,3′-bipyridin-3-amine] | 0.121 µM |

Compounds with a lower Ki, results first:

| Ki | SMILES |
| --- | --- |
| 0.00171 µM | Cc1ncccc1-c1nc2cc(F)cc(F)c2c(Nc2cc(N3CCOCC3)cnc2N2CCOCC2)c1C [N-(2,5-di-4-morpholinyl-3-pyridinyl)-5,7-difluoro-3-methyl-2-(2-methyl-3-pyridinyl)-4-quinolinamine] |
| 0.00795 µM | Cc1c(-c2cnccn2)nc2cc(F)cc(F)c2c1Nc1cc(N2CCOCC2)cnc1N1CCOCC1 [N-(2,5-di-4-morpholinyl-3-pyridinyl)-5,7-difluoro-3-methyl-2-(2-pyrazinyl)-4-quinolinamine] |
| 0.00843 µM | Cc1c(-c2cccnc2)nc2cc(F)cc(F)c2c1Nc1cc(N2CCOCC2)cnc1N1CCOCC1 [N-(2,5-di-4-morpholinyl-3-pyridinyl)-5,7-difluoro-3-methyl-2-(3-pyridinyl)-4-quinolinamine] |
| 0.012 µM | Cc1c(N2CCN(C)CC2)nc2cc(F)cc(F)c2c1Nc1cc(N2CCOCC2)cnc1N1CCOCC1 [N-(2,5-di-4-morpholinyl-3-pyridinyl)-5,7-difluoro-3-methyl-2-(4-methyl-1-piperazinyl)-4-quinolinamine] |
| 0.00161 µM | Cc1ccncc1-c1nc2cc(F)cc(F)c2c(Nc2cc(N3CCOCC3)cnc2N2CCOCC2)c1C [N-(2,5-di-4-morpholinyl-3-pyridinyl)-5,7-difluoro-3-methyl-2-(4-methyl-3-pyridinyl)-4-quinolinamine] |
| 0.0113 µM | CSc1cncc(-c2nc3cc(F)cc(F)c3c(Nc3cc(N4CCOCC4)cnc3N3CCOCC3)c2C)c1 [N-(2,5-di-4-morpholinyl-3-pyridinyl)-5,7-difluoro-3-methyl-2-(5-(methylsulfanyl)-3-pyridinyl)-4-quinolinamine] |
| 0.00822 µM | Cc1ccc(S(C)(=O)=O)c(-c2nc3cc(F)cc(F)c3c(Nc3cc(N4CCOCC4)cnc3N3CCOCC3)c2C)c1 [N-(2,5-di-4-morpholinyl-3-pyridinyl)-5,7-difluoro-3-methyl-2-(5-methyl-2-(methylsulfonyl)phenyl)-4-quinolinamine] |
| 0.00892 µM | Cc1cncc(-c2nc3cc(F)cc(F)c3c(Nc3cc(N4CCOCC4)cnc3N3CCOCC3)c2C)c1 [N-(2,5-di-4-morpholinyl-3-pyridinyl)-5,7-difluoro-3-methyl-2-(5-methyl-3-pyridinyl)-4-quinolinamine] |
| 0.0112 µM | Cc1c(-c2cc([N+](=O)[O-])ccc2F)nc2cc(F)ccc2c1Nc1cc(N2CCOCC2)cnc1N1CCOCC1 [N-(2,5-di-4-morpholinyl-3-pyridinyl)-7-fluoro-2-(2-fluoro-5-nitrophenyl)-3-methyl-4-quinolinamine] |
| 0.00825 µM | Cc1c(-c2cc([N+](=O)[O-])ccc2S(C)(=O)=O)nc2cc(F)ccc2c1Nc1cc(N2CCOCC2)cnc1N1CCOCC1 [N-(2,5-di-4-morpholinyl-3-pyridinyl)-7-fluoro-3-methyl-2-(2-(methylsulfonyl)-5-nitrophenyl)-4-quinolinamine] |
| 0.00765 µM | Cc1c(-c2ccccn2)nc2cc(F)cc(F)c2c1Nc1cc(N2CCOCC2)ccc1C1=CCOCC1 [N-(2-(3,6-dihydro-2H-pyran-4-yl)-5-(4-morpholinyl)phenyl)-5,7-difluoro-3-methyl-2-(2-pyridinyl)-4-quinolinamine] |
| 0.00226 µM | Cc1c(-c2ccccn2)nc2cc(F)cc(F)c2c1Nc1cc(N2CCOCC2)cnc1-c1cccc(OC(F)F)c1 [N-(2-(3-(difluoromethoxy)phenyl)-5-(4-morpholinyl)-3-pyridinyl)-5,7-difluoro-3-methyl-2-(2-pyridinyl)-4-quinolinamine] |
| 0.00125 µM | Cc1c(-c2ccccn2)nc2cc(F)cc(F)c2c1Nc1cc(N2CCOCC2)cnc1-c1ccc(OC(F)F)cc1 [N-(2-(4-(difluoromethoxy)phenyl)-5-(4-morpholinyl)-3-pyridinyl)-5,7-difluoro-3-methyl-2-(2-pyridinyl)-4-quinolinamine] |
| 0.00426 µM | Cc1c(-c2ccccn2)nc2cc(F)cc(F)c2c1Nc1cc(N2CCOCC2)cnc1Cl [N-(2-chloro-5-(4-morpholinyl)-3-pyridinyl)-5,7-difluoro-3-methyl-2-(2-pyridinyl)-4-quinolinamine] |
| 0.00176 µM | COc1ccc(-c2ncc(N3CCOCC3)cc2Nc2c(C)c(-c3ccccc3S(C)(=O)=O)nc3cc(F)cc(F)c23)cn1 [N-(5,7-difluoro-3-methyl-2-(2-(methylsulfonyl)phenyl)-4-quinolinyl)-6′-methoxy-5-(4-morpholinyl)-2,3′-bipyridin-3-amine] |
| 0.00793 µM | COc1cc(-c2ncc(N3CCOCC3)cc2Nc2c(C)c(-c3ccccn3)nc3cc(F)cc(F)c23)ccn1 [N-(5,7-difluoro-3-methyl-2-(2-pyridinyl)-4-quinolinyl)-2′-methoxy-5-(4-morpholinyl)-2,4′-bipyridin-3-amine] |
